On the set-up of series [1]: species or system broiler chickens (Ross 308). To be noted: in vivo.
For series [2] the following is noted: in vivo, po; cited from earlier work.
The test system of series [3] is CYP2A6. Put plainly: in vitro. Conditions: read-out: IC50 for CYP2A6. The protocol:
(§1) A cocktail-approach for elucidating the metabolites profiling and CYP450 inhibition was conducted as in Lin et al. with minor changes. The incubation mixture contained 50 μL of 0.2 mg/mL of CLM, 10 μL of 0.1 M phosphate buffer (pH 7.4), 40 μL of 1 mM NADPH and six probe substrates with a total volume of 200 μL. The specific probe substrates used for each CYP450 isoenzyme in the incubation mixture were as follows: PH (CYP1A2), BP (CYP2B6), CLN (CYP2E1), TBD (CYP2C9), CAN (CYP2A6), and MDZ (CYP3A4). Probes substrates were dissolved in methanol as stock solution (1 mg/mL). All of them were diluted to the final concentrations (see Supplemental Materials) with incubation buffer and the percentage of organic solvent in the final incubation volume was below 1% (v/v). Briefly, the mixture was preincubated in a thermoshaker (Biosan, Geraardsbergen, Belgium) for 5 min at 37 °C prior to the initiation of the reaction with NADPH.4Na. After incubation, the mixture was terminated by 400 μL ice-cold acetonitrile. […] A volume of 5 µL of supernatant was analysed using UHPLC-MS/MS.

The subject of series [4] is CYP450 in chicken liver microsomes. The series is described as follows: in vitro. To be noted: read-out: IC50 values in chicken liver microsomes (all CYP450 isoforms tested). The protocol:
as §1

The conditions of series [5]: rat, in vivo, po, cited from earlier work.
For series [6] the following is noted: in vivo, 5 mg/kg; cited from earlier work.
In series [7] the test system is broilers. To be noted: in vivo.
The conditions of series [8]: in vivo, cited from earlier work.
For series [9], the system named is CYP1A2 (PH), CYP2B6 (BP), CYP2E1 (CLN), CYP2C9 (TBD), CYP2A6 (CAN), CYP3A4 (MDZ). Put plainly: in vitro. To be noted: chicken, pH 7.4. The protocol: as §1, with “The incubation mixture contained 50 μL of 0.2 mg/mL of CLM, 10 μL of 0.1 M phosphate buffer (pH 7.4), 40 μL of 1 mM NADPH and six probe substrates with a total volume of 200 μL. The specific probe substrates used for each CYP450 isoenzyme in the incubation mixture were as follows: PH (CYP1A2), BP (CYP2B6), CLN (CYP2E1), TBD (CYP2C9), CAN (CYP2A6), and MDZ (CYP3A4).” left out
(§2) Enzyme kinetic studies were conducted for the six CYP450-related probes reactions. For each probe, the maximum rate of the Vmax and Km were obtained using GraphPad Prism v.8.0.2 software via Michaelis-Menten Kinetic model (La Jolla, CA, USA). The incubation times of 5, 10, 15, 30, 45 and 60 min were tested individually. A series of protein concentrations (0.05, 0.1, 0.2, 0.4, 0.6, 0.8 and 1 mg/mL) of CLM in the incubation mixture were conducted. Triplicate analyses were performed for each incubation system.

Series [10] concerns chicken liver microsomes (CYP450). Put plainly: in vitro. The protocol:
as §1, with “The incubation mixture contained 50 μL of 0.2 mg/mL of CLM, 10 μL of 0.1 M phosphate buffer (pH 7.4), 40 μL of 1 mM NADPH and six probe substrates with a total volume of 200 μL. The specific probe substrates used for each CYP450 isoenzyme in the incubation mixture were as follows: PH (CYP1A2), BP (CYP2B6), CLN (CYP2E1), TBD (CYP2C9), CAN (CYP2A6), and MDZ (CYP3A4).” left out
as §2

In series [11] the test system is CYP2A6. To be noted: read-out: Km of CYP2A6; turkey; CAN as substrate; cited from earlier work.
The subject of series [12] is CYP1A2, CYP3A4. Conditions: cited from earlier work.

This is an account of results in publication PMC10974768 (Toxins, 2024).

“And” between values parts separate entries of the source, which are not always exact repeats. Identical values can stand only once. Like-named read-outs stand apart in the source and are kept apart here.

Turning to `COc1cc2c(c3oc(=O)c4c(c13)CCC4=O)[C@@H]1C=CO[C@@H]1O2` [AFB1, aflatoxin B1], in [1], the “AUCINF_obs, Control” value is on record as 94.2 ± 40.4 ** h·ng/mL; the “AUCINF_obs, Treatment” value came out at 265.8 ± 222.9 ng·h/mL; the “AUClast, Control” value is listed as 87.5 ± 39.6 ** h·ng/mL; the “AUClast, Treatment” value is 170 ± 103.6 ng·h/mL. In [1], the “CL_F_obs, Control” value stood at 14.3 ± 6.7 L/h/kg; the “CL_F_obs, Treatment” value turned out to be 9.4 ± 6.5 L/h/kg; the “Cmax, Control” value stood at 29.3 ± 3.2 ng/mL; the “MRTlast, Control” value worked out at 4.7 ± 0.7 h. Also, in series [1], the “MRTlast, Treatment” value worked out at 6.4 ± 3.2 h; the “T1/2λz, Treatment” value stood at 1.4 ± 0.5 h; the “Tmax, Treatment” value turned out to be 18 ± 6 min; the “Vd_F_obs, Control” value stood at 14.8 ± 4.8 L/kg. Besides, in series [1], the “Vd_F_obs, Treatment” value is 18.4 ± 7.7 L/kg; the “increase of AUClast of AFB1 by TIA” value turned out to be 194%; the “increase of mean residence time (MRT) of AFB1 by TIA” value was 136%. Besides, in [2], the peak concentration (Cmax) was 3.8 ± 0.9 ng/mL, the mean residence time (MRT) is 11.73 ± 0.94 h, the T1/2e is 15.52 ± 0.51 h and the Tmax was 34.8 ± 10.2 min. Also, in series [3], the IC50 came out at 24.1 µM. For the same compound, the IC50 in series [4] is more than 7.6 µM. In series [5] (1 mg/kg), the “AUC0–24” value was 45.59 ± 17.19 ng·h/mL; the CL is 22.33 ± 9.79 L/h/kg; the Cmax was 93.42 ± 23.01 ng/mL and 90 ± 20 ng/mL; the Tmax result is reported as “about 0.15 h”. Moreover, in series [5] (1 mg/kg), the Vd is 226.46 ± 100.76 L/kg. For the same compound, the T1/2e in [5] is listed as 7.62 h. Further, the “time for depletion in chicken liver, kidney, and muscle” value in series [6] was 10 to 19 days. Besides, the “adverse health effects in broilers” value in series [7] is listed as “No significant adverse health effects”. In [8] (human), the “AUC0–t” value was 25.6 ± 6.3 pg·h/mL, the T1/2β is 64.4 h and the Tmax is listed as 1.02 ± 0.31 h. In addition, the T1/2α in series [8] is 2.86 h.

For `O=c1ccc2ccccc2o1` [Coumarin], the Km in series [9] (broiler) was 56.1 µM; in series [9], 56.1 µM; in series [11], 33.6 ± 8.52 µM. Moreover, the maximal velocity (Vmax) in series [10] (chicken liver microsomes, Michaelis-Menten, PH (CYP1A2), BP (CYP2B6), CLN (CYP2E1), TBD (CYP2C9), CAN (CYP2A6), MDZ (CYP3A4), n = 3) was determined as 190.8 nmol/min/mg.

As for `Cc1ncc2n1-c1ccc(Cl)cc1C(c1ccccc1F)=NC2` [Midazolam], the values for the Michaelis-Menten constant (Km) in series [9] (broiler) and in [9] were 3.3 µM and 3.31 µM, respectively. In series [10], the maximum rate (Vmax) was found to be 37.7 nmol/min/mg.

Consider `CCOc1ccc(NC(C)=O)cc1` [Phenacetin], for which the Km was 20.7 µM in series [9] (broiler), 20.7 µM in series [9] and 98.1 ± 18.6 µM in series [12]. Further, the maximal velocity (Vmax) in series [10] came out at 63.1 nmol/min/mg.

On to `CCCCNC(=O)NS(=O)(=O)c1ccc(C)cc1` [Tolbutamide], for which the Vmax in series [10] came to 159.4 nmol/min/mg.
